Columns and labels:
[1] = system: EpiSC-derived OPCs; experiment: In vitro phenotypic screening of OPCs (MBP staining, high-content imaging); format: cell-based, mouse; settings: Mus musculus, 72 h, percentage of MBP+ oligodendrocytes, 3 days, 0.5 nM to 1000 nM; read-out: OPC EC50
Method in brief: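 Readout: high-content imaging of MBP immunostaining around DAPI nuclei, giving percent oligodendrocytes, with EC50 from a Levenberg-Marquardt Hill fit. Epiblast stem cell-derived OPCs were plated on laminin at 150,000/cm^2 in growth-factor-free N2B27. They were exposed 3 days to an 8-point series, 0.5-1000 nM final, in two or more independent platings.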

[2] = system: EBP (zymostenol accumulation in EpiSC-derived OPCs); experiment: GC/MS-based sterol profiling, zymostenol accumulation in OPCs; format: cell-based, mouse; settings: Mus musculus, 24 h, EpiSC-derived OPCs, 24 hr treatment, 8 doses from 0.15 nM to 333 nM; read-out: Zymostenol GCMS EC50
Method in brief: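 EpiSC-derived OPCs (100,000/well) were treated 24 h in N2B27 without growth factors. Sterols were TMS-derivatized and analysed by GC/MS full-scan EI, quantified against cholesterol-d7. Zymostenol was normalized to the level after 24 h with 100 nM positive control reference.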

| EC50 [1] [µM] | EC50 [2] [µM] | SMILES |
| --- | --- | --- |
| 0.016 | 0.011 | O=S1(=O)CC2(CCN([C@H]3CC[C@H](c4ccc(C(F)(F)F)nc4)CC3)C2)C1 [Compound 14A, 6-((1r,4r)-4-(6-(Trifluoromethyl)pyridin-3-yl)cyclohexyl)-2-thia-6-azaspiro[3.4]octane 2,2-dioxide] |
| 0.24 | 0.043 | O=S1(=O)CC2(CCN([C@H]3CC[C@@H](c4ccc(C(F)(F)F)nc4)CC3)C2)C1 [Compound 14B, 6-((1s,4s)-4-(6-(Trifluoromethyl)pyridin-3-yl)cyclohexyl)-2-thia-6-azaspiro[3.4]octane 2,2-dioxide] |
| 0.044 | 0.004 | CCn1nc(C(F)(F)F)cc1[C@H]1CC[C@H](N2CCC3(C2)CS(=O)(=O)C3)CC1 [Compound 15, 6-((1r,4r)-4-(1-Ethyl-3-(trifluoromethyl)-1H-pyrazol-5-yl)cyclohexyl)-2-thia-6-azaspiro[3.4]octane 2,2-dioxide] |
| 0.041 | 0.012 | CCn1nc([C@H]2CC[C@H](N3CCC4(C3)CS(=O)(=O)C4)CC2)cc1C(F)(F)F [Compound 16, 6-((1r,4r)-4-(1-Ethyl-5-(trifluoromethyl)-1H-pyrazol-3-yl)cyclohexyl)-2-thia-6-azaspiro[3.4]octane 2,2-dioxide] |
| 0.037 | 0.012 | Cc1cc(C(F)(F)F)ncc1[C@H]1CC[C@@H](N2CCC3(C2)CS(=O)(=O)C3)CC1 [Compound 21A, 6-((1s,4s)-4-(4-Methyl-6-(trifluoromethyl)pyridin-3-yl)cyclohexyl)-2-thia-6-azaspiro[3.4]octane 2,2-dioxide] |
| 0.12 | 0.05 | Cc1cc(C(F)(F)F)ncc1[C@H]1CC[C@H](N2CCC3(C2)CS(=O)(=O)C3)CC1 [Compound 21B, 6-((1r,4r)-4-(4-Methyl-6-(trifluoromethyl)pyridin-3-yl)cyclohexyl)-2-thia-6-azaspiro[3.4]octane 2,2-dioxide] |
| 0.1 | 0.031 | O=S1(=O)CC2(CCN([C@H]3CC[C@@H](c4cc(C(F)(F)F)nn4C4CCC4)CC3)C2)C1 [Compound 23A, 6-((1s,4s)-4-(1-Cyclobutyl-3-(trifluoromethyl)-1H-pyrazol-5-yl)cyclohexyl)-2-thia-6-azaspiro[3.4]octane 2,2-dioxide] |
| 0.028 | 0.009 | O=S1(=O)CC2(CCN([C@H]3CC[C@H](c4cc(C(F)(F)F)nn4C4CCC4)CC3)C2)C1 [Compound 23B, 6-((1r,4r)-4-(1-Cyclobutyl-3-(trifluoromethyl)-1H-pyrazol-5-yl)cyclohexyl)-2-thia-6-azaspiro[3.4]octane 2,2-dioxide] |
| 0.006 | 0.003 | O=S1(=O)CC2(CCN([C@H]3CC[C@H](c4cc(C(F)(F)F)n(C5CCC5)n4)CC3)C2)C1 [Compound 24, 6-((1r,4r)-4-(1-cyclobutyl-5-(trifluoromethyl)-1H-pyrazol-3-yl)cyclohexyl)-2-thia-6-azaspiro[3.4]octane 2,2-dioxide] |
| 0.1 | 0.043 | Cn1nc(C(F)(F)F)cc1[C@H]1CC[C@@H](N2CCC3(CC2)CS(=O)(=O)C3)CC1 [Compound 25A, 7-((1s,4s)-4-(1-Methyl-3-(trifluoromethyl)-1H-pyrazol-5-yl)cyclohexyl)-2-thia-7-azaspiro[3.5]nonane 2,2-dioxide] |
| 0.087 | 0.026 | Cn1nc(C(F)(F)F)cc1[C@H]1CC[C@H](N2CCC3(CC2)CS(=O)(=O)C3)CC1 [Compound 25B, 7-((1r,4r)-4-(1-methyl-3-(trifluoromethyl)-1H-pyrazol-5-yl)cyclohexyl)-2-thia-7-azaspiro[3.5]nonane 2,2-dioxide] |
| 0.064 | 0.0075 | Cc1cc(C(F)(F)F)ncc1N1CCC(N2CCC3(C2)CS(=O)(=O)C3)CC1 [Compound 28, 6-(1-(4-Methyl-6-(trifluoromethyl)pyridin-3-yl)piperidin-4-yl)-2-thia-6-azaspiro[3.4]octane 2,2-dioxide] |
| 0.039 | 0.0071 | Cc1nc(C(F)(F)F)ccc1N1CCC(N2CCC3(C2)CS(=O)(=O)C3)CC1 [Compound 29, 6-(1-(2-methyl-6-(trifluoromethyl)pyridin-3-yl)piperidin-4-yl)-2-thia-6-azaspiro[3.4]octane 2,2-dioxide] |
| 0.01 | 0.005 | O=S1(=O)CC2(CCN(C3CCN(c4ncc(C(F)(F)F)cc4Cl)CC3)C2)C1 [Compound 30, 6-(1-(3-chloro-5-(trifluoromethyl)pyridin-2-yl)piperidin-4-yl)-2-thia-6-azaspiro[3.4]octane 2,2-dioxide] |
| 0.06 | 0.007 | O=S1(=O)CC2(CCN(C3CCN(c4ncc(C(F)(F)F)cc4F)CC3)C2)C1 [Compound 32, 6-(1-(3-fluoro-5-(trifluoromethyl)pyridin-2-yl)piperidin-4-yl)-2-thia-6-azaspiro[3.4]octane 2,2-dioxide] |
| 0.029 | 0.0076 | CC(C)n1nc(-c2cncc(OC(F)F)c2)cc1[C@H]1CC[C@H](N2CCC3(C2)CS(=O)(=O)C3)CC1 [Compound 33A, 6-((1r,4r)-4-(3-(5-(Difluoromethoxy)pyridin-3-yl)-1-isopropyl-1H-pyrazol-5-yl)cyclohexyl)-2-thia-6-azaspiro[3.4]octane 2,2-dioxide] |
| 0.053 | 0.0098 | CC(C)n1nc(-c2cncc(OC(F)F)c2)cc1[C@H]1CC[C@@H](N2CCC3(C2)CS(=O)(=O)C3)CC1 [Compound 33B, (Cis)-6-(4-(3-(5-(Difluoromethoxy)pyridin-3-yl)-1-isopropyl-1H-pyrazol-5-yl)cyclohexyl)-2-thia-6-azaspiro[3.4]octane 2,2-dioxide] |
| 0.21 | 0.045 | CC(C)n1nc(N2CC(F)(F)C2)cc1[C@H]1CC[C@H](N2CCC3(C2)CS(=O)(=O)C3)CC1 [Compound 35, 6-((1r,4r)-4-(3-(3,3-Difluoroazetidin-1-yl)-1-isopropyl-1H-pyrazol-5-yl)cyclohexyl)-2-thia-6-azaspiro[3.4]octane 2,2-dioxide] |
| 0.022 | 0.004 | O=S1(=O)CC2(CCN([C@H]3CC[C@@H](c4cc(C(F)(F)F)nn4C4CC4)CC3)CC2)C1 [Compound 40A, 7-((1r,4r)-4-(1-cyclopropyl-3-(trifluoromethyl)-1H-pyrazol-5-yl)cyclohexyl)-2-thia-7-azaspiro[3.5]nonane 2,2-dioxide] |
| 0.071 | 0.017 | O=S1(=O)CC2(CCN([C@H]3CC[C@H](c4cc(C(F)(F)F)nn4C4CC4)CC3)CC2)C1 [Compound 40B, 7-((1s,4s)-4-(1-cyclopropyl-3-(trifluoromethyl)-1H-pyrazol-5-yl)cyclohexyl)-2-thia-7-azaspiro[3.5]nonane 2,2-dioxide] |
| 0.02 | 0.0041 | Cc1cc(C(F)(F)F)cnc1[C@H]1CC[C@H](N2CCC3(C2)CS(=O)(=O)C3)CC1 [Compound 47B, 6-((1r,4r)-4-(3-methyl-5-(trifluoromethyl)pyridin-2-yl)cyclohexyl)-2-thia-6-azaspiro[3.4]octane 2,2-dioxide] |

| SMILES | EC50 [1] [µM] | EC50 [2] [µM] |
| --- | --- | --- |
| Cc1cc(F)cnc1N1CCC(N2CCC3(C2)CS(=O)(=O)C3)CC1 [Compound 31, 6-(1-(5-fluoro-3-methylpyridin-2-yl)piperidin-4-yl)-2-thia-6-azaspiro[3.4]octane 2,2-dioxide] | 0.19 | 0.032 |

Reference: patent US20240398781A1, “SPIROCYCLIC CYCLIC MODULATORS OF CHOLESTEROL BIOSYNTHESIS AND THEIR USE FOR PROMOTING REMYELINATION” (GENENTECH, INC., priority 2021, published 2024)
